For one compound, IC50 results are on record in BindingDB's records for doi:10.1016/j.bmcl.2009.09.002 (Novartis Institutes For Biomedical Research, 2009).

The assay in a line: Antagonist activity at human CXCR3 expressed in L1.2 cells assessed as inhibition of I-TAC-induced cell migration by flow cytometry.

Regarding `CCN(CC)C(=O)[C@@H]1C=C2c3cccc4[nH]cc(c34)C[C@H]2N(C(=O)Nc2ccccc2)C1` [(6aR,9R)-N9,N9-diethyl-N7-phenyl-6,6a,8,9-tetrahydroindolo[4,3-fg]quinoline-7,9(4H)-dicarboxamide], the IC50 came out at 74 nM.
